{"source": "patent US20150239890A1", "about": "“CRYSTAL OF N-[2-(AMINO)-2-METHYLPROPYL]-2-METHYLPYRAZOLO[1,5-A]PYRIMIDINE-6-CARBOXAMIDE” (SANWA KAGAKU KENKYUSHO CO., LTD., priority 2012, published 2015)", "assay_type_in_all_cases": "physicochemical", "key": {"[1]": {"test": "Stability test in (sealed) condition at 60° C., purity by HPLC", "details": "for Purity (60° C., sealed) After 4 weeks: sealed brown glass bottle; for Purity (60° C., sealed) Initial stage value: before storage", "method": "Each test sample of an amorphous compound 1 prepared by a modification method, an amorphous compound 2 obtained by forming a free base of the amorphous compound 1 into hydrochloride in the same method as in Example 1 of Patent Literature 1, a crystal of the compound 1, which was prepared by the method described in Example 1 of the present specification, was charged into a brown glass bottle by each amount of 10 mg and preserved at 60° C., and the purities were compared after 4 weeks. […] Not that the purity measurement was carried out in the following conditions.\nColumn: Develosil CN-5 (Nomura Chemical), 250 mm×4.6 mmφ\nMobile phase: 20 mM NaH2PO4 buffer (pH 6.9)/MeCN=80/20\nWavelength: UV 247 nm and 220 nm\nConcentration of test sample: 100 μg/ml (H2O)"}, "[2]": {"test": "Hygroscopicity test in condition of 66% RH (20° C.)", "method": "Each test sample of an amorphous compound 1 prepared in a modification method, an amorphous compound 2 obtained by forming a free base of the amorphous compound 1 into hydrochloride in the same method as in Example 1 of Patent Literature 1, a crystal of the compound 1, which was prepared by the method described in Example 1 of the present specification, was charged into a desiccator at a humidity of 66% RH that was prepared by an aqueous saturated sodium nitrite solution by each amount of 100 mg and left stood at 20° C. Change in weights of each test sample was measured with time and a weight increase ratio was calculated."}, "[3]": {"test": "Solubility of the crystal in water", "details": "for solubility: 20 °C, thermodynamic from solid", "method": "1. The crystal has peaks around at 9.8°, 17.4°, 18.6°, 25.3°, and 25.8° as diffraction angles represented by 2θ in the powder X-ray diffraction pattern. 2. The crystal has absorption recognized around at wave numbers of 3340 cm^−1, 1664 cm^−1, and 1654 cm^−1 in the infrared absorption spectrum. 3. The crystal has a heat adsorption peak around at 120° C. in the differential scanning calorimetry (DSC). 4. The crystal has a degree of solubility to water of 1 g/ml or higher and the solubility is classified into “very soluble” according to the Japanese Pharmacopoeia.\nSolubility (20° C.): >1 g/ml (very soluble)"}, "[4]": {"details": "66% RH, 20° C., after 7 days, listed as crystal of the compound 1"}, "[5]": {"details": "66% RH, 20° C., after 7 days, listed as amorphous compound 1"}}, "note": "Like-named read-outs stand apart in the source and are kept apart here.", "data": [{"smiles": "Cc1cc2ncc(C(=O)NCC(C)(C)NCC(=O)N3CCC[C@H]3C#N)cn2n1", "note": "[Crystal of compound 1, N-[2-({2-[(2S)-2-cyanopyrrolidine-1-yl]-2-oxoethyl}amino)-2-methylpropyl]-2-methylpyrazolo[1,5-a]pyrimidine-6-carboxamide]", "values": [{"measurement": "Purity (60° C., sealed) After 4 weeks", "setting": "[1]; 60° C., after 4 weeks", "value": 100.0, "unit": "%"}, {"measurement": "Purity (60° C., sealed) After 4 weeks", "setting": "[1]; 60° C., after 4 weeks, listed as crystal of the compound 1", "value": "not changed"}, {"measurement": "impurity / area value of an impurity peak, initial stage", "setting": "[1]", "value": "not observed to contain an impurity"}, {"measurement": "Purity (60° C., sealed) Initial stage value", "setting": "[1]", "value": 100.0, "unit": "%"}, {"measurement": "Weight increase ratio (66% RH, 20° C.) After 7 days", "setting": "[2]; 66% RH, 20° C., after 7 days", "value": 0.01, "unit": "%"}, {"measurement": "hygroscopicity (in words)", "setting": "[2]; 66% RH, 20° C., after 7 days", "value": "hygroscopicity was not observed"}, {"measurement": "purity After 7 days (66% RH, 20° C.)", "setting": "[2]; 66% RH, 20° C., after 7 days", "value": 100.0, "unit": "%"}, {"measurement": "Weight increase ratio (66% RH, 20° C.) After 7 days", "setting": "[2]; [4]", "value": 0.01, "unit": "%"}, {"measurement": "purity After 7 days (66% RH, 20° C.)", "setting": "[2]; [4]", "value": "change in the purity was also not recognized"}, {"measurement": "Weight increase ratio (66% RH, 20° C.) Initial stage value", "setting": "[2]", "value": 0}, {"measurement": "purity, Initial stage value (66% RH, 20° C. test)", "setting": "[2]", "value": 100.0, "unit": "%"}, {"measurement": "Solubility (20° C.) class", "setting": "[3]; 20° C.", "value": "very soluble"}, {"measurement": "solubility class according to the Japanese Pharmacopoeia", "setting": "[3]; water", "value": "very soluble"}, {"measurement": "solubility", "setting": "[3]; water, water, 20° C., read-out: Solubility (20° C.)", "value": "> 1000", "unit": "mg/mL"}, {"measurement": "solubility", "setting": "[3]; water, water, water, read-out: degree of solubility to water", "value": "≥ 1000", "unit": "mg/mL"}]}, {"smiles": "Cc1cc2ncc(C(=O)NCC(C)(C)NCC(=O)N3CCC[C@H]3C#N)cn2n1", "note": "[Amorphous compound 2]", "values": [{"measurement": "Purity (60° C., sealed) After 4 weeks", "setting": "[1]; 60° C., after 4 weeks", "value": 96.1, "unit": "%"}, {"measurement": "Purity (60° C., sealed) After 4 weeks", "setting": "[1]; 60° C., after 4 weeks, listed as amorphous compound 2", "value": 96.1, "unit": "%"}, {"measurement": "area value of an impurity peak after 4 weeks", "setting": "[1]; 60° C., sealed, after 4 weeks", "value": 3.1, "unit": "%"}, {"measurement": "impurity / area value of an impurity peak, initial stage", "setting": "[1]", "value": 0.6, "unit": "%"}, {"measurement": "Purity (60° C., sealed) Initial stage value", "setting": "[1]", "value": 98.8, "unit": "%"}, {"measurement": "Purity (60° C., sealed) Initial stage value", "setting": "[1]; listed as amorphous compound 2", "value": 98.8, "unit": "%"}, {"measurement": "Weight increase ratio (66% RH, 20° C.) After 7 days", "setting": "[2]; 66% RH, 20° C., after 7 days", "value": 1.7, "unit": "%"}, {"measurement": "purity After 7 days (66% RH, 20° C.)", "setting": "[2]; 66% RH, 20° C., after 7 days", "value": 90.5, "unit": "%"}, {"measurement": "Weight increase ratio (66% RH, 20° C.) Initial stage value", "setting": "[2]", "value": 0}, {"measurement": "purity, Initial stage value (66% RH, 20° C. test)", "setting": "[2]", "value": 97.9, "unit": "%"}]}, {"smiles": "Cc1cc2ncc(C(=O)NCC(C)(C)NCC(=O)N3CCC[C@H]3C#N)cn2n1", "note": "[Amorphous compound 1, N-[2-({2-[(2S)-2-cyanopyrrolidine-1-yl]-2-oxoethyl}amino)-2-methylpropyl]-2-methylpyrazolo[1,5-a]pyrimidine-6-carboxamide]", "values": [{"measurement": "Purity (60° C., sealed) After 4 weeks", "setting": "[1]; 60° C., after 4 weeks", "value": 99.4, "unit": "%"}, {"measurement": "Purity (60° C., sealed) After 4 weeks", "setting": "[1]; 60° C., after 4 weeks, listed as amorphous compound 1", "value": 99.4, "unit": "%"}, {"measurement": "impurity / area value of an impurity peak, initial stage", "setting": "[1]", "value": "not observed to contain an impurity"}, {"measurement": "Purity (60° C., sealed) Initial stage value", "setting": "[1]", "value": 100.0, "unit": "%"}, {"measurement": "Weight increase ratio (66% RH, 20° C.) After 7 days", "setting": "[2]; 66% RH, 20° C., after 7 days", "value": 1.7, "unit": "%"}, {"measurement": "purity After 7 days (66% RH, 20° C.)", "setting": "[2]; 66% RH, 20° C., after 7 days", "value": 99.8, "unit": "%"}, {"measurement": "Weight increase ratio (66% RH, 20° C.) After 7 days", "setting": "[2]; [5]", "value": 1.7, "unit": "%"}, {"measurement": "purity After 7 days (66% RH, 20° C.)", "setting": "[2]; [5]", "value": 99.8, "unit": "%"}, {"measurement": "Weight increase ratio (66% RH, 20° C.) Initial stage value", "setting": "[2]", "value": 0}, {"measurement": "purity, Initial stage value (66% RH, 20° C. test)", "setting": "[2]", "value": 100.0, "unit": "%"}]}]}
